Measured values: US12264134B2 (Merck Sharp & Dohme LLC, priority 2018, dated 2025)
pIC50: −log10 of the molar value.

molecular target: IDO1 (Homo sapiens, UniProt P14902); experiment: IDO1 Cellular Assay in HeLa Cells Stimulated with IFNγ; assay type: cell-based; conditions: read-out: HeLa Cell Potency, IC50
Sequence (P14902 whole entry): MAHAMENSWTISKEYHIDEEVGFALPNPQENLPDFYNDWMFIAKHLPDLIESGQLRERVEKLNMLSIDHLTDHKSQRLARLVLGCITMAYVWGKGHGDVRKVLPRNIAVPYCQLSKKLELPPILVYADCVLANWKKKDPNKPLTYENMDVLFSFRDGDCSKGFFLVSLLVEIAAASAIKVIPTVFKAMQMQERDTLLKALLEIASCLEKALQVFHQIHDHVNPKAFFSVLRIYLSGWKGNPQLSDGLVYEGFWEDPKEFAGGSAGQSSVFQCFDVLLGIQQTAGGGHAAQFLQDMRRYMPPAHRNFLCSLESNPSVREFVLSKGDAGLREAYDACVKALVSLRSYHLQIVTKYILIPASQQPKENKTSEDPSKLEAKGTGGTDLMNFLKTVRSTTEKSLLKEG

Row | pIC50 | Compound
1 | 6.09 | O=C(Cn1nc(C(=O)N2CCC(O)CC2)c2c1CCC2)N1CCN(C2CCc3ccccc32)CC1 (single isomer, unassigned) [Example 437, 1-(4-(2,3-dihydro-1H-inden-1-yl)piperazin-1-yl)-2-(3-(4-hydroxypiperidine-1-carbonyl)-5,6-dihydrocyclopenta[c]pyrazol-1(4H)-yl)ethanone]
2 | 6.39 | Cc1cccc(N2CCN(C(=O)Cn3nc(C(=O)N4C[C@H](O)[C@@H](O)C4)c4c3CCC4)CC2)c1C [Example 309, 2-{3-[(3S,4S)-3,4-dihydroxypyrrolidine-1-carbonyl]-5,6-dihydrocyclopenta[c]pyrazol-1(4H)-yl}-1-[4-(2,3-dimethylphenyl)piperazin-1-yl]ethan-1-one]
3 | 7.14 | Cc1cccc(N2CCN(C(=O)Cn3nc(C(=O)N4CC[C@H](N)[C@H](F)C4)c4c3CCC4)CC2)c1C [Example 211, [(3R,4S)-1-[1-[2-[4-(2,3-dimethylphenyl)piperazin-1-yl]-2-oxo-ethyl]-5,6-dihydro-4H-cyclopenta[c]pyrazole-3-carbonyl]-3-fluoro-4-piperidyl]ammonium;formate]
4 | 8.14 | Cc1cccc(N2CCN(C(=O)Cn3nc(C(=O)N4CCC(O)CC4(C)C)c4c3C[C@H]3C[C@@H]43)CC2)c1C (stereo partly drawn) [Example 216, 1-[4-(2,3-dimethylphenyl)piperazin-1-yl]-2-[(3bR,4aR)-3-(4-hydroxy-2,2-dimethylpiperidine-1-carbonyl)-3b,4,4a,5-tetrahydro-1H-cyclopropa[3,4]cyclopenta[1,2-c]pyrazol-1-yl]ethan-1-one]
5 | 8.34 | Cc1cccc(N2CCN(C(=O)Cn3nc(C(=O)N4CCC(n5cncn5)CC4)c4c3CCC4)CC2)c1C [Example 132, 1-[4-(2,3-dimethylphenyl)piperazin-1-yl]-2-{3-[4-(1H-1,2,4-triazol-1-yl)piperidine-1-carbonyl]-5,6-dihydrocyclopenta[c]pyrazol-1(4H)-yl}ethan-1-one]
6 | 6.40 | Cc1cccc(N2CCN(C(=O)Cn3nc(C(=O)N4C[C@@H](O)[C@@H](O)C4)c4c3CCC4)CC2)c1C [Example 308, 2-{3-[(3R,4S)-3,4-dihydroxypyrrolidine-1-carbonyl]-5,6-dihydrocyclopenta[c]pyrazol-1(4H)-yl}-1-[4-(2,3-dimethylphenyl)piperazin-1-yl]ethan-1-one]
7 | 6.61 | Cc1cc(F)cc(N2CCN(C(=O)Cn3nc(C(=O)N4C[C@@H](C)O[C@@H](C)C4)c4c3CCC4)CC2)c1 [Example 41, 2-{3-[(2R,6S)-2,6-dimethylmorpholine-4-carbonyl]-5,6-dihydrocyclopenta[c]pyrazol-1(4H)-yl}-1-[4-(3-fluoro-5-methylphenyl)piperazin-1-yl]ethan-1-one]
8 | 8.20 | Cc1cccc(N2CCN(C(=O)Cn3nc(C(=O)N4CCC(O)(CCC(F)(F)F)CC4)c4c3CCC4)CC2)c1C [Example 170, 1-[4-(2,3-dimethylphenyl)piperazin-1-yl]-2-{3-[4-hydroxy-4-(3,3,3-trifluoropropyl)piperidine-1-carbonyl]-5,6-dihydrocyclopenta[c]pyrazol-1(4H)-yl}ethan-1-one]
9 | 8.66 | Cc1cccc(N2CCN(C(=O)Cn3nc(C(=O)N4CCC5(CC4)CNC(=O)N5C)c4c3C[C@H]3C[C@@H]43)CC2)c1C [Example 227, 8-[(3bR,4aR)-1-{2-[4-(2,3-dimethylphenyl)piperazin-1-yl]-2-oxoethyl}-3b,4,4a,5-tetrahydro-1H-cyclopropa[3,4]cyclopenta[1,2-c]pyrazole-3-carbonyl]-1-methyl-1,3,8-triazaspiro[4.5]decan-2-one]
10 | 7.12 | Cc1cccc(N2CCN(C(=O)Cn3nc(C(=O)N4CCCC(N5CCCC5)C4)c4c3CCC4)CC2)c1C (stereo not drawn) [Example 187, 1-[4-(2,3-dimethylphenyl)piperazin-1-yl]-2-{3-[3-(pyrrolidin-1-yl)piperidine-1-carbonyl]-5,6-dihydrocyclopenta[c]pyrazol-1(4H)-yl}ethan-1-one]
11 | 8.68 | CNC(=O)NC1CCN(C(=O)c2nn(CC(=O)N3CCN(c4cccc(C)c4C)CC3)c3c2[C@@H]2C[C@@H]2C3)CC1 [Example 217, 1-(1-((3bR,4aR)-1-(2-(4-(2,3-dimethylphenyl)piperazin-1-yl)-2-oxoethyl)-3b,4,4a,5-tetrahydro-1H-cyclopropa[3,4]cyclopenta[1,2-c]pyrazole-3-carbonyl)piperidin-4-yl)-3-methylurea]
12 | 8.29 | Cc1c(Cl)cccc1N1CCN(C(=O)Cn2nc(C(=O)N3CC[C@H](O)[C@H](F)C3)c3c2CCC(F)C3)CC1 (stereo partly drawn) [Example 374, 1-(4-(3-chloro-2-methylphenyl)piperazin-1-yl)-2-(5-fluoro-3-((3R,4S)-3-fluoro-4-hydroxypiperidine-1-carbonyl)-4,5,6,7-tetrahydro-1H-indazol-1-yl)ethan-1-one]
13 | 8.62 | Cc1c(Cl)cccc1N1CCN(C(=O)Cn2nc(C(=O)N3CCC(O)C(C)C3)c3c2C[C@H]2C[C@@H]32)CC1 (stereo partly drawn) [Example 354, 1-(4-(3-chloro-2-methylphenyl)piperazin-1-yl)-2-((3bR,4aR)-3-(4-hydroxy-3-methylpiperidine-1-carbonyl)-3b,4,4a,5-tetrahydro-1H-cyclopropa[3,4]cyclopenta[1,2-c]pyrazol-1-yl)ethanone]
14 | 7.77 | Cc1cccc(N2CCN(C(=O)Cn3nc(C(=O)N4CCC(O)C(F)(F)C4)c4c3CCC4)CC2)c1C (stereo not drawn) [Example 205, 2-[3-(3,3-difluoro-4-hydroxy-piperidine-1-carbonyl)-5,6-dihydro-4H-cyclopenta[c]pyrazol-1-yl]-1-[4-(2,3-dimethylphenyl)piperazin-1-yl]ethanone]
15 | 6.74 | O=C(Cn1nc(C(=O)N2CCC(O)CC2)c2c1CCC2)N1CCN(C2CCCc3ccccc32)CC1 (single isomer, unassigned) [Example 430]
16 | 7.32 | Cc1cccc(N2CCN(C(=O)Cn3nc(C(=O)N4CC5(CC(O)C5)C4)c4c3CCC4)CC2)c1C [Example 305, 1-[4-(2,3-dimethylphenyl)piperazin-1-yl]-2-[3-(6-hydroxy-2-azaspiro[3.3]heptane-2-carbonyl)-5,6-dihydrocyclopenta[c]pyrazol-1(4H)-yl]ethan-1-one]
17 | 8.92 | Cc1cccc(N2CCN(C(=O)Cn3nc(C(=O)N4CC[C@@H](O)[C@@H](F)C4)c4c3C[C@H]3C[C@@H]43)C3(CC3)C2)c1C [Example 365, 1-(7-(2,3-dimethylphenyl)-4,7-diazapspiro[2.5]octan-4-yl)-2-((3bR,4aR)-3-((3S,4R)-3-fluoro-4-hydroxypiperidine-1-carbonyl)-3b,4,4a,5-tetrahydro-1H-cyclopropa[3,4]cyclopenta[1,2-c]pyrazol-1-yl)ethanone]
18 | < 5.00 | O=C(Cn1nc(C(=O)N2CC[C@H](O)[C@H](F)C2)c2c1CCC2)N1CCN(C2CCCc3ccccc32)CC1 (single isomer, unassigned) [Example 427]
19 | 8.41 | Cc1cccc(N2CCN(C(=O)Cn3nc(C(=O)N4CCC(n5nccn5)CC4)c4c3CCC4)CC2)c1C [Example 138, 1-[4-(2,3-dimethylphenyl)piperazin-1-yl]-2-{3-[4-(2H-1,2,3-triazol-2-yl)piperidine-1-carbonyl]-5,6-dihydrocyclopenta[c]pyrazol-1(4H)-yl}ethan-1-one]
20 | 7.52 | Cc1cccc(N2CCN(C(=O)Cn3nc(C(=O)N4CCC(O)(C(N)=O)CC4)c4c3CCC4)CC2)c1C [Example 169, 1-(1-{2-[4-(2,3-dimethylphenyl)piperazin-1-yl]-2-oxoethyl}-1,4,5,6-tetrahydrocyclopenta[c]pyrazole-3-carbonyl)-4-hydroxypiperidine-4-carboxamide]
21 | 7.93 | Cc1c(Cl)cccc1N1CCN(C(=O)Cn2nc(C(=O)N3CCN(C)C(C)C3)c3c2CCC(F)(F)C3)CC1 (stereo not drawn) [Example 382]
22 | 7.15 | Cc1cccc(N2CCN(C(=O)Cn3nc(C(=O)N4CC[C@H](O)[C@H](F)C4)c4c3C[C@@H]3C[C@H]43)CC2)c1C [Example 307, 1-[4-(2,3-dimethylphenyl)piperazin-1-yl]-2-{(3bS,4aS)-3-[(3R,4S)-3-fluoro-4-hydroxypiperidine-1-carbonyl]-3b,4,4a,5-tetrahydro-1H-cyclopropa[3,4]cyclopenta[1,2-c]pyrazol-1-yl}ethan-1-one]
23 | 6.38 | Cc1cccc(N2CCN(C(=O)Cn3nc(C(=O)N4CC[C@H](O)[C@@H](F)C4)c4c3CC(F)(F)C4)CC2)c1C [Example 424, 2-(5,5-difluoro-3-((3 S,4S)-3-fluoro-4-hydroxypiperidine-1-carbonyl)-5,6-dihydrocyclopenta[c]pyrazol-1(4H)-yl)-1-(4-(2,3-dimethylphenyl)piperazin-1-yl)ethan-1-one]
24 | 7.82 | Cc1ccc(N2CCN(C(=O)Cn3nc(C(=O)N4C[C@@H](C)O[C@@H](C)C4)c4c3CCC4)CC2)c(C)c1 [Example 50, 2-{3-[(2R,6S)-2,6-dimethylmorpholine-4-carbonyl]-5,6-dihydrocyclopenta[c]pyrazol-1(4H)-yl}-1-[4-(2,4-dimethylphenyl)piperazin-1-yl]ethan-1-one]
25 | 9.21 | Cc1cccc(N2CCN(C(=O)Cn3nc(C(=O)N4CCC(CO)CC4)c4c3C[C@H]3C[C@@H]43)CC2)c1C [Example 249, 1-[4-(2,3-dimethylphenyl)piperazin-1-yl]-2-{(3bR,4aR)-3-[4-(hydroxymethyl)piperidine-1-carbonyl]-3b,4,4a,5-tetrahydro-1H-cyclopropa[3,4]cyclopenta[1,2-c]pyrazol-1-yl}ethan-1-one]
26 | 8.36 | Cc1cccc(N2CCN(C(=O)Cn3nc(C(=O)N4C[C@@H](C)O[C@@H](C)C4)c4c3C3CC3C4)CC2)c1C (stereo partly drawn) [Example 311, 2-{3-[(2R,6S)-2,6-dimethylmorpholine-4-carbonyl]-4,4a,5,5a-tetrahydro-1H-cyclopropa[4,5]cyclopenta[1,2-c]pyrazol-1-yl}-1-[4-(2,3-dimethylphenyl)piperazin-1-yl]ethan-1-one]
27 | 6.90 | Cc1ccc(N2CCN(C(=O)Cn3nc(C(=O)N4C[C@@H](C)O[C@@H](C)C4)c4c3CCC4)CC2)c(F)c1 [Example 56, 2-{3-[(2R,6S)-2,6-dimethylmorpholine-4-carbonyl]-5,6-dihydrocyclopenta[c]pyrazol-1(4H)-yl}-1-[4-(2-fluoro-4-methylphenyl)piperazin-1-yl]ethan-1-one]
